Source: patent US11331299B2, “Medicinal use of serrulatane diterpenes” (The University of Sydney, priority 2016, dated 2022)

Columns and labels:
PRMT8 (h) = PRMT8 (h) (Homo sapiens, UniProt Q9NR22); test: Epigenetic enzyme assay, Methyltransferases (MTs); type: biochemical; settings: read-out: % Inhibition of Control Values
DNMT1 (h) = DNMT1 (h) (Homo sapiens, UniProt P26358); test: Epigenetic enzyme assay, DNA methyltransferases (DNMTs); type: biochemical; settings: read-out: % Inhibition of Control Values
DNMT1 (h), sequence (P26358 whole entry): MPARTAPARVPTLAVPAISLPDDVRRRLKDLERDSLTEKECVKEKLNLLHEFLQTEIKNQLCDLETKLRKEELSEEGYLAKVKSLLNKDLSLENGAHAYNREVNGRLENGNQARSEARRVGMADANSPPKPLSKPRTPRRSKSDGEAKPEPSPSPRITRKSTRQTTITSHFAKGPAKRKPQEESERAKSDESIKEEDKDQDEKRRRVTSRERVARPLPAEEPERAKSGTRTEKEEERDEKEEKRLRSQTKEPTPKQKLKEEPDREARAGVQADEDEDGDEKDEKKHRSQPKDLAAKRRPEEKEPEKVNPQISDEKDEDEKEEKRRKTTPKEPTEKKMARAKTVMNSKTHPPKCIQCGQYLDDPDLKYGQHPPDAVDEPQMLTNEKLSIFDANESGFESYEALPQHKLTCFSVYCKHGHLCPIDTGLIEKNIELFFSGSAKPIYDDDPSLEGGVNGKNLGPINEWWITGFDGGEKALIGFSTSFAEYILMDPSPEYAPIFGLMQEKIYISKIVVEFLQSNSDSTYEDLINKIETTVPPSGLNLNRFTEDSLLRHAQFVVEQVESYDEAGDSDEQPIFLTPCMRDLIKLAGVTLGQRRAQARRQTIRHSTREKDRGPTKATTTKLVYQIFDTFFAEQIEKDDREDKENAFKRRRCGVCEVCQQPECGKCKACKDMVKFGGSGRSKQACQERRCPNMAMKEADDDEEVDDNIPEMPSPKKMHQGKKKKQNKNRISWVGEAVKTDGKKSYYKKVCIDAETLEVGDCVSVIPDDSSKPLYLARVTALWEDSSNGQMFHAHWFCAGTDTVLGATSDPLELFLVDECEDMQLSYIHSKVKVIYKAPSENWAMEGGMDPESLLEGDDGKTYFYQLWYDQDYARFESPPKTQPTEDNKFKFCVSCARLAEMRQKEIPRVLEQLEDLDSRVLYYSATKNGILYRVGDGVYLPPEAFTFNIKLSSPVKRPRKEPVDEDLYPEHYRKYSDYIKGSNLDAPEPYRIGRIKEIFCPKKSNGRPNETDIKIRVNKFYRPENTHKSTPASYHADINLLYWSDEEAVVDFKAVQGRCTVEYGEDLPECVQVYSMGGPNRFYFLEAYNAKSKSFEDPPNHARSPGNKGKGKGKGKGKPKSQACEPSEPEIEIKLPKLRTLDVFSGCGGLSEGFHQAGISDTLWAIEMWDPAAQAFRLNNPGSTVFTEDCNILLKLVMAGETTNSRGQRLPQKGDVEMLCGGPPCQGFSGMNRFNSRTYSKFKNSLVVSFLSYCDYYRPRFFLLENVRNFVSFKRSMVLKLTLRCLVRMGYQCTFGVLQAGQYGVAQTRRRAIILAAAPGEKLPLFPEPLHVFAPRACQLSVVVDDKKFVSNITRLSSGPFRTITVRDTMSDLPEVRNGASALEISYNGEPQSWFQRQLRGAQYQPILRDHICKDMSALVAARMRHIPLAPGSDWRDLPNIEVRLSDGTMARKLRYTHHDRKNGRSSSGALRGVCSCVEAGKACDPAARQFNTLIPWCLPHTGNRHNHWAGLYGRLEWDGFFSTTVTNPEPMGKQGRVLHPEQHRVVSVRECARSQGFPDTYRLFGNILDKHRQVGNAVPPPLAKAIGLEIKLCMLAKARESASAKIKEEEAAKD

FALZ (h) bromodomain = molecular target: T1, FALZ (h) bromodomain (Homo sapiens, UniProt Q12830); test: Epigenetic binding assay, Bromodomain; settings: 10 μM; read-out: % Inhibition of Control Specific Binding
T1 construct: Bromodomain; Eurofins CEREP (France), contract laboratory

NSD1 (h) = NSD1 (h) (Homo sapiens, UniProt Q96L73); test: Epigenetic enzyme assay, Methyltransferases (MTs); type: biochemical; settings: for inhibition at 10 µM: read-out: % Inhibition of Control Values
NSD1 (h), sequence (Q96L73 whole entry, the tested form may be a part): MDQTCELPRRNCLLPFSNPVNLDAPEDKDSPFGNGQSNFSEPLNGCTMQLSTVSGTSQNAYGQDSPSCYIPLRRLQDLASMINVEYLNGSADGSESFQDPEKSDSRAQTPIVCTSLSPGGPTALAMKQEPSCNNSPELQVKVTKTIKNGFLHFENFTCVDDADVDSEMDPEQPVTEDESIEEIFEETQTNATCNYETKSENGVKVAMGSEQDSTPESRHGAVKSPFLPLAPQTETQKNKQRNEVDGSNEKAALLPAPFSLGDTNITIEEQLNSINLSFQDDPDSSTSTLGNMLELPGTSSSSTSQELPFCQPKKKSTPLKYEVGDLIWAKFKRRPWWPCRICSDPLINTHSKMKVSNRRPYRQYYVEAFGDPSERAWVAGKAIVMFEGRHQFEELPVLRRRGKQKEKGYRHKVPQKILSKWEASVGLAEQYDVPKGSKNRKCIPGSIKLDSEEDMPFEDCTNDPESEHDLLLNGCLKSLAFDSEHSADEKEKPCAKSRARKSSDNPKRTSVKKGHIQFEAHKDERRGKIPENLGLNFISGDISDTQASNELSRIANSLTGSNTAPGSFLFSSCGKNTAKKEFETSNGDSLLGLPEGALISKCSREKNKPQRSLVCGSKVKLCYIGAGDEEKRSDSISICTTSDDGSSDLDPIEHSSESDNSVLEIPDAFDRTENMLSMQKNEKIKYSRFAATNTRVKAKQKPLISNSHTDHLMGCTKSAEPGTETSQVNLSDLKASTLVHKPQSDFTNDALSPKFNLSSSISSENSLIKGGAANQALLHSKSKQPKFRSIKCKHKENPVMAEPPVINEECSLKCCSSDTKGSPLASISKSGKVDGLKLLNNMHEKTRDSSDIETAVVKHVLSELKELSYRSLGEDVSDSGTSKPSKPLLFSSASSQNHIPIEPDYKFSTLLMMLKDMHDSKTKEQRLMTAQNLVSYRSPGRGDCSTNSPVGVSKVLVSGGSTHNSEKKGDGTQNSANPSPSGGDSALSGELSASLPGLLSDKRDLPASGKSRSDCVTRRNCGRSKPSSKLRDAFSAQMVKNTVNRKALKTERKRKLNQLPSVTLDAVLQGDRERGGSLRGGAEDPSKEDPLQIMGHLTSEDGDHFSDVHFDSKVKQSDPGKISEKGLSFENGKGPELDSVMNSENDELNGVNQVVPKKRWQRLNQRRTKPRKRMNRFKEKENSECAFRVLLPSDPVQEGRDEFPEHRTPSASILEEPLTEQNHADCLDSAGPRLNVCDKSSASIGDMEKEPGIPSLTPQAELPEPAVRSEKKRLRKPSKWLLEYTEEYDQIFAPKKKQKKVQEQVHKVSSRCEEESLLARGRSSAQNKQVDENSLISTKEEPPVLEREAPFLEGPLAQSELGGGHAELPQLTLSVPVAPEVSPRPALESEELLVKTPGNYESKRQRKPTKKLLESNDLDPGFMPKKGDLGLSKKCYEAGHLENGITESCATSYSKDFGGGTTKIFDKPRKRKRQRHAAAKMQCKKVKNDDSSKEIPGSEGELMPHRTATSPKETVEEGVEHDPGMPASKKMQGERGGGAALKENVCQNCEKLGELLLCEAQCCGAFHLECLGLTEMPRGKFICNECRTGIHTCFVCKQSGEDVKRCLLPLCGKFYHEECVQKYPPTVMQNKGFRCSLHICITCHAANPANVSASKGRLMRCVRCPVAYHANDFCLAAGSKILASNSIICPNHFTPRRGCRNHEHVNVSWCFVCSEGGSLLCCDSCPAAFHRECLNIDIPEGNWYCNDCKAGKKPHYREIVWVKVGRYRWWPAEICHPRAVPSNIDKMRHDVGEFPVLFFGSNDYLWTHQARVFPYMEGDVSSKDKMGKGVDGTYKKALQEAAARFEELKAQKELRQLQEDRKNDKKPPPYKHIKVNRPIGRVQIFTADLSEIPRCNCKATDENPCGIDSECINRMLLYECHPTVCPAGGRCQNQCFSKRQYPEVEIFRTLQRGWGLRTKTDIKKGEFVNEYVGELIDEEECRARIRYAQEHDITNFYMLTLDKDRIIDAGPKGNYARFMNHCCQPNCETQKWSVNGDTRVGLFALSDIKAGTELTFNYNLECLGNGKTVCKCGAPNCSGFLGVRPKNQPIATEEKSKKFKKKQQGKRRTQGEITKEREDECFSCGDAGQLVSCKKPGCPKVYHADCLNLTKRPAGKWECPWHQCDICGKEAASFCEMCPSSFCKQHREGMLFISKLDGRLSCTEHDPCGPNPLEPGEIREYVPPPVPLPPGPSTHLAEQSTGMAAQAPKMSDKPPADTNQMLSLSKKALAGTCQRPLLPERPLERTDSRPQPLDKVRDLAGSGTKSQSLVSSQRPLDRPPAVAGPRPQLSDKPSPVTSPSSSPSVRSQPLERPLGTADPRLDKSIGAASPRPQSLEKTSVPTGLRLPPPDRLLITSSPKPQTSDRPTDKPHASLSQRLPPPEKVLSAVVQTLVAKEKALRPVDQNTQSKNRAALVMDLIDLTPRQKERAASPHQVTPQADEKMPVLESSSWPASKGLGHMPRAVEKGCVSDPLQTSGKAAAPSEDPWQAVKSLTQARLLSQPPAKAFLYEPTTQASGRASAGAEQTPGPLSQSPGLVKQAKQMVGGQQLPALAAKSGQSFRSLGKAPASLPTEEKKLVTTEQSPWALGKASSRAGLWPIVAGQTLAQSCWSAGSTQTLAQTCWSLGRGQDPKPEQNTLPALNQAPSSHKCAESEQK

SP140 (h) PHD domain = molecular target: T2, SP140 (h) PHD domain (Homo sapiens, UniProt Q13342); test: Epigenetic binding assay, PHD domain; settings: for inhibition at 10 µM: read-out: % Inhibition of Control Specific Binding
T2 construct: Eurofins CEREP (France), contract laboratory

Chemokine CXCR2 (IL-8RB) = molecular target: T3, Chemokine CXCR2 (IL-8RB) (Homo sapiens, UniProt P25025); test: Chemokine CXCR2 (IL-8RB) radio ligand binding; settings: assay year 2015
T3 construct: expressed in transfected cells; host or cells: CHO-K1 cells
T3 sequence (P25025 1-360): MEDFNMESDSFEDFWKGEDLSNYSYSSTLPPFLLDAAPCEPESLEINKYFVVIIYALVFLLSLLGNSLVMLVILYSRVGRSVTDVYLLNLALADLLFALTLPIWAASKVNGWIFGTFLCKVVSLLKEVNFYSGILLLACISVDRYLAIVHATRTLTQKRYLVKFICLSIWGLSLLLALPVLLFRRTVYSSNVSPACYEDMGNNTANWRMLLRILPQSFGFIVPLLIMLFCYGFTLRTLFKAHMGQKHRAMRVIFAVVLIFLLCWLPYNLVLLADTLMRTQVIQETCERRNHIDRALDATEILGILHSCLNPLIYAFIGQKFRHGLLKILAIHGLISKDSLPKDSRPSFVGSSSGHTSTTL
Protocol: The in vitro pharmacological studies were conducted by Eurofins PanLab (Taiwan) using the parameters shown in Table 13 with respect to appropriate literature references.

HDAC11 (h) = molecular target: T4, HDAC11 (h) (Homo sapiens, UniProt Q96DB2); test: Epigenetic enzyme assay, Histone deacetylase (HDACs); type: biochemical; settings: read-out: % Inhibition of Control Values
T4 sequence (Q96DB2 1-347): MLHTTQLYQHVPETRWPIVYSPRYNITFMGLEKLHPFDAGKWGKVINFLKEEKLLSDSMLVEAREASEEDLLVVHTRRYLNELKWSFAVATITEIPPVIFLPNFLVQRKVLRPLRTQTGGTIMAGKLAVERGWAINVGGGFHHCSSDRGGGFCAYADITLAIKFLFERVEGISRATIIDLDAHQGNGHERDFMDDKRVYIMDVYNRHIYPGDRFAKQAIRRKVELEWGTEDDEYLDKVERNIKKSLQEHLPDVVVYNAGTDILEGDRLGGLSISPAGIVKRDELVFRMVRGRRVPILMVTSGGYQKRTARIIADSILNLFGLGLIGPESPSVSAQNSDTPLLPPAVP

JMJD3 (h) = JMJD3 (h) (Homo sapiens, UniProt O15054); test: Epigenetic enzyme assay, Demethylases (KDMs); type: biochemical; settings: for inhibition at 10 µM: read-out: % Inhibition of Control Values
639-V = test: OncoPanel cell proliferation assay (10-day); type: cell-based, human; settings: for EC50 / GI50 / IC50: Homo sapiens, Bladder; for EC50: read-out: Cell Count EC50; for GI50: read-out: Cell Count GI50; for IC50: read-out: Cell Count IC50
[1] = molecular target: T5, IKK alpha(h) (substrate histone H3 full length) (Homo sapiens, UniProt O15111); test: Epigenetic enzyme assay, Kinases; type: biochemical; settings: read-out: % Inhibition of Control Values
T5 sequence (O15111 1-745): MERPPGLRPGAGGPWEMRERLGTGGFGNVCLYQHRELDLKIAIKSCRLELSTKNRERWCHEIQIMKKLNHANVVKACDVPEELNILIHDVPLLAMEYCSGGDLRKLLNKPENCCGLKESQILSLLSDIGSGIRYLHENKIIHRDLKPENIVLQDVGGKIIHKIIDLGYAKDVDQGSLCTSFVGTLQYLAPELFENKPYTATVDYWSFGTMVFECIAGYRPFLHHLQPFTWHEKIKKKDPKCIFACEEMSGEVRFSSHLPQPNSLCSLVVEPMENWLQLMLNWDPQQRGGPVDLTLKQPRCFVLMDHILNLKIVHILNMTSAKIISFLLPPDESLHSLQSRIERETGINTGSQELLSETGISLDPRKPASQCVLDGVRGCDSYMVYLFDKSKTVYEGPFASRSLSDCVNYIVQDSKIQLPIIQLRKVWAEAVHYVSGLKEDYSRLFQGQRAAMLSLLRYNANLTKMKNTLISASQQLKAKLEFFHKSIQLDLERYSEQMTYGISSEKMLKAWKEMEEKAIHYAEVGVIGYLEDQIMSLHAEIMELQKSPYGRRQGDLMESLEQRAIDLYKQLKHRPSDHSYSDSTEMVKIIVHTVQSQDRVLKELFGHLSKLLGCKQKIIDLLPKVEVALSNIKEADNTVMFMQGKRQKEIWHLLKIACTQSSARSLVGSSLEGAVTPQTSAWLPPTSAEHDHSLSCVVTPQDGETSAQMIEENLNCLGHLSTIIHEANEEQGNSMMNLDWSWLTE

SMARCA2 (h) bromodomain = molecular target: T6, SMARCA2 (h) bromodomain (Homo sapiens, UniProt P51531); test: Epigenetic binding assay, Bromodomain; settings: for inhibition at 10 µM: read-out: % Inhibition of Control Specific Binding
T6 construct: Bromodomain

HL-60 leukemia cells = test: In vitro cell viability assay (intracellular ATP, 72 hour); type: cell-based; settings: HL-60 (TB) (Leukemia); 10 μM
DOT1L (h) = DOT1L (h) (Homo sapiens, UniProt Q8TEK3); test: Epigenetic enzyme assay, Methyltransferases (MTs); type: biochemical; settings: read-out: % Inhibition of Control Values
USP 16 (h) = USP 16 (h) (Homo sapiens, UniProt Q9Y5T5); test: Epigenetic enzyme assay, Ubiquitin modifying enzymes; type: biochemical; settings: 10 μM; read-out: % Inhibition of Control Values
USP 16 (h), sequence (Q9Y5T5 whole entry, the tested form may be a part): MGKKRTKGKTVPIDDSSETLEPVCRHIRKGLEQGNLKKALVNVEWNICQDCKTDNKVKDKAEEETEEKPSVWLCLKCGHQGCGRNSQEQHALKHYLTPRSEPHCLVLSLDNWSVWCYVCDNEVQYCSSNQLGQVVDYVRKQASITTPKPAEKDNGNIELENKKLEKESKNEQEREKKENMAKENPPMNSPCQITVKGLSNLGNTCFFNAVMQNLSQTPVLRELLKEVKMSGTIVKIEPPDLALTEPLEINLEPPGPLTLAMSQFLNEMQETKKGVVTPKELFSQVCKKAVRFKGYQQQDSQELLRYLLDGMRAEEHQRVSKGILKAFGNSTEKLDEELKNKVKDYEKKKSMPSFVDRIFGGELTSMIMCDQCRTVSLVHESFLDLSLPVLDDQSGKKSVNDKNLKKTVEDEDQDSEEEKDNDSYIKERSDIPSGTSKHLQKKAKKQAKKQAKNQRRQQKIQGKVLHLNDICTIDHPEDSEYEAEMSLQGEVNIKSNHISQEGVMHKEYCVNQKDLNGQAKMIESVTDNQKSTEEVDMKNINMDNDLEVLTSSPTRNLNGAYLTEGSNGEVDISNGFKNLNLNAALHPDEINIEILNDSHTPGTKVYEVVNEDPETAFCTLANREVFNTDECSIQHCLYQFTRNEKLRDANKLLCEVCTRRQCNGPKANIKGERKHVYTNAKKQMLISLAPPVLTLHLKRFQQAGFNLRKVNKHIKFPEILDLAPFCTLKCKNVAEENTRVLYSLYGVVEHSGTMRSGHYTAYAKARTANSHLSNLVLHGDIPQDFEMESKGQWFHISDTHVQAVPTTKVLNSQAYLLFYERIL

TRIM 33 (h) PHD domain = molecular target: T7, TRIM 33 (h) PHD domain (Homo sapiens, UniProt Q9UPN9); test: Epigenetic binding assay, PHD domain; settings: for inhibition at 10 µM: read-out: % Inhibition of Control Specific Binding
T7 construct: Eurofins CEREP (France), contract laboratory
T7 sequence (Q9UPN9 887-934 limits assumed): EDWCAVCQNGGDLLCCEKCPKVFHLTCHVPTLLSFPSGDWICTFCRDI

Structure (SMILES) | inhibition at 10 µM (PRMT8 (h)) [%] | inhibition at 10 µM (DNMT1 (h)) [%] | inhibition at 10 µM (FALZ (h) bromodomain) [%] | inhibition at 10 µM (NSD1 (h)) [%] | inhibition at 10 µM (SP140 (h) PHD domain; 10 μM) [%] | % control response at 10 µM (Chemokine CXCR2 (IL-8RB)) [%] | inhibition at 10 µM (HDAC11 (h)) [%] | inhibition at 10 µM (JMJD3 (h); 10 μM) [%] | EC50 (639-V) [µM] | GI50 (639-V) [µM] | IC50 (639-V) [µM] | inhibition at 10 µM [1] [%] | inhibition at 10 µM (SMARCA2 (h) bromodomain) [%] | % Cell growth (HL-60 leukemia cells) [%] | inhibition at 10 µM (DOT1L (h)) [%] | inhibition at 10 µM (USP 16 (h)) [%] | inhibition at 10 µM (TRIM 33 (h) PHD domain) [%] | other results
CC(C)=CCC[C@H](CO)[C@@H]1CC[C@@H](C)c2c1cc(C)c(O)c2O [Compound 1, 7,8,18-trihydroxyserrulat-14-ene] | 5 | 10 | 42 | 69 | 74 | 12 | 27 | 91 | 2.01 | 2.01 | 2.01 | 26 | 83 | −62 | -5 | 11 | 59 | IC50 (NSD1 (h); Table 11, inhibition/concentration-response curve, read-out: IC50): 4.9 µM; % Inhibition of Control Specific Binding (SP140 (h) PHD domain; 10 μM): good inhibitory activity; IC50 (SP140 (h) PHD domain; Table 9, inhibition/concentration-response curve): 4.6 µM; % Inhibition of Control Values (JMJD3 (h); 10 μM): significant inhibitory activity; IC50 (JMJD3 (h); Table 11, inhibition/concentration-response curve): 14 µM; Relative cell count (%) Mean (639-V; 3.00E+00 microM): 15.8%; Relative cell count (%) Mean (639-V; 3.00E+01 microM): 0.0%; Relative cell count (%) Mean (639-V; 3.01E−01 microM): 92.6%; Relative cell count (%) Mean (639-V; 3.01E−02 microM): 103.6%; Relative cell count (%) Mean (639-V; 3.02E−03 microM): 96.1%; Relative cell count (%) Mean (639-V; 9.49E+00 microM): 0.3%; Relative cell count (%) Mean (639-V; 9.51E−01 microM): 91.9%; Relative cell count (%) Mean (639-V; 9.52E−02 microM): 91.6%; Relative cell count (%) Mean (639-V; 9.53E−03 microM): 101.2%; Relative cell count (%) Mean (639-V; 9.55E−04 microM): 92.0%; % Inhibition of Control Specific Binding (SMARCA2 (h) bromodomain; 10 μM): significant inhibitory activity; % Inhibition of Control Specific Binding (TRIM 33 (h) PHD domain; 10 μM): good inhibitory activity
CC(C)=CCC[C@@H]1C(O)Oc2c(C)cc(O)c3c2[C@H]1CC[C@H]3C (stereo partly drawn) [Compound 2, 5,18-epoxyserrulat-14-en-8,18-diol] | 24 | 4 | 18 | 29 | 0 | -7 | -47 | 9 | 6.54 | 7.98 | 8 | 28 | 21 | −35 | 18 | 14 | 3 | 
CC(C)=CCC[C@@H]1COc2c(C)cc(O)c3c2[C@H]1CC[C@H]3C [Compound 3, 5,18-epoxy-8-hydroxyserrulat-14-ene] | -26 | -5 | 5 | -10 | 2 | 1 | -130 | 11 |  |  |  | 14 | 18 | 138 | 13 | 12 | -2 | 
CC(C)=CCC[C@H](C)[C@@H]1CC[C@@H](C)c2c1cc(C)c(O)c2O [Compound 4, 7,8-dihydroxyserrulat-14-ene] |  |  |  |  |  |  |  |  | 12 | 12 | 12 |  |  | −83 |  |  |  | 
